# Publication PMC10733463, “Berberine-microbiota interplay: orchestrating gut health through modulation of the gut microbiota and metabolic transformation into bioactive metabolites” (Frontiers in Pharmacology, 2023)
# How the values were obtained:
# [1] = system: Caco-2 cells; assay: Cell viability assay (neutral red uptake), Caco-2; format: cell-based, human; conditions: 0.1 µg berberine/mL medium
# Protocol: Caco-2 cells (human intestinal epithelial cells) were cultured in MEM (Gibco, Paisley, United Kingdom) supplemented with 10% Fetal Bovine Serum (FBS), 1% L-glutamine (Gibco), 1% MEM NEAA (Gibco) and 1% penicillin/streptomycin (P/S) (Gibco). T84 cells (human intestinal epithelial cells) were cultured in 1:1 DMEM/F12 (Gibco) supplemented with 10% FBS, 1% L-glutamine and 1% P/S (37°C, 5% CO2). The neutral red uptake assay was employed to evaluate the potential cytotoxicity of berberine ([Repetto et al., 2008]). Briefly, Caco-2 and T84 were seeded at 2 × 10^5 cells/well and 5 × 10^4 cells/well respectively in 96-well plates (Greiner Bio-one, Frickenhausen, Germany) and cultivated for 24 h in antibiotic-free medium (treatment medium) for attachment. […] A 10-fold dilution of sodium dodecyl sulfate (Sigma-Aldrich), ranging from 10 mg/mL to 10^−6 mg/mL was used a positive control. Cells were washed with 200 µL pre-warmed HBSS(+) (Gibco) and then treated with 150 µL of Neutral Red medium, consisting of 1:80 Neutral Red solution 0.33% (Sigma-Aldrich)/treatment medium for 3 h. Cells were washed in 200 µL HBSS(+) and treated with 100 µL of Neutral Red Desorb solution, consisting of 1% glacial acetic acid (Merck, Darmstadt, Germany), 50% ethanol (95%, Chem-Lab, Zedelgem, Belgium) and 49% deionized water.
# [2] = system: Blautia spp., A. butyraticus, E. limosum; assay: Growth of bacteria in presence of increasing concentrations of berberine; format: cell-based; conditions: 10 μg/mL berberine, M2GSC, anaerobic
# Description: Samples were collected and processed as described before.
# Supplementary Figure S1 – Growth of bacteria in presence of increasing concentrations of berberine in M2GSC medium (μg/mL) under anaerobic conditions. Strains were further tested for their ability to metabolize berberine (Figure 14). Strains were selected according to OTUs which relative abundance was positively correlated to berberrubine or thalifendine levels, including Blautia spp. and A. butyraticus. E. limosum was included as it was expected to demethylate berberine due to previous literature (Possemiers et al., 2008; Rich et al., 2022). Overnight cultures were 1:1000 diluted in M2GSC medium supplemented with 0, 1, 10 or 100 µg/mL berberine and grown for 24 hours under anaerobic conditions. Absorbance data at 600 nm are expressed as the mean ± standard deviation (n = 3). *: p < 0.05; ***: p < 0.001.
smiles,measurement,setting,value
"COc1ccc2cc3[n+](cc2c1OC)CCc1cc2c(cc1-3)OCO2 [Berberine, Berberine chloride]",Cytotoxicity (Neutral Red Uptake),[1],considered safe
same,Growth of the tested bacteria,[2],not significantly affected
